One molecule from article PMC10296195, “C-Methylated Spermidine Derivatives: Convenient Syntheses and Antizyme-Related Effects” (Biomolecules, 2023) can be followed below.

Where two headings read alike, the source gives them in different places.

This assay deals with T1, mOAZ1 (Mus musculus, UniProt P54369).
T1 construct: gene Oaz1; full-length mouse antizyme 1 (+1 frameshift product); expressed in E. coli Rosetta (DE3) from pET-15b-2c-His-mAZ (XhoI site)
The assay is described as follows: isothermal titration calorimetry. The format is binding. The text has this: isothermal titration calorimetry on mOAZ1

T1 sequence (P54369 2-227): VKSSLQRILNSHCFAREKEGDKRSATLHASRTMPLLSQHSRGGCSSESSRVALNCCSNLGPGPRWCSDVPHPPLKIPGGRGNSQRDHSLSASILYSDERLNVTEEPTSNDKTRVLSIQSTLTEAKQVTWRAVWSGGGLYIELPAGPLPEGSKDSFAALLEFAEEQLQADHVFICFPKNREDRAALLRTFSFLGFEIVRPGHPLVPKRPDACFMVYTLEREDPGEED

For the molecule `NCCCNCCCCNCCCN` [Spm], the Kd is, setting by setting: (read-out: Ka ^b, M^-1 (converted)) 370 nM; (read-out: Kd ^c) 370 nM.
